Several values for one entry are separate records, joined by “and”; a condition that tells them apart may be missing. Equal values may be shown once. Read-outs that look alike come from different tables or passages of the source.
Experiments:
PDE 8A = test system: PDE 8A; set-up: method as in earlier work; conditions: cited from earlier work
PDE10A [1] = target: T1, PDE10A (Homo sapiens, UniProt Q9Y233); assay: Homologous competitive binding on membrane homogenates of PDE10A-transfected SF21 cells; conditions: read-out: IC50 (homologous competition vs [18F]IV)
T1 construct: purchased Biocrea GmbH, Radebeul, Germany; host or cells: SF21 insect cells (PDE10A-transfected; baculovirus system is mentioned)
T1 sequence (Q9Y233 whole entry, species assumed): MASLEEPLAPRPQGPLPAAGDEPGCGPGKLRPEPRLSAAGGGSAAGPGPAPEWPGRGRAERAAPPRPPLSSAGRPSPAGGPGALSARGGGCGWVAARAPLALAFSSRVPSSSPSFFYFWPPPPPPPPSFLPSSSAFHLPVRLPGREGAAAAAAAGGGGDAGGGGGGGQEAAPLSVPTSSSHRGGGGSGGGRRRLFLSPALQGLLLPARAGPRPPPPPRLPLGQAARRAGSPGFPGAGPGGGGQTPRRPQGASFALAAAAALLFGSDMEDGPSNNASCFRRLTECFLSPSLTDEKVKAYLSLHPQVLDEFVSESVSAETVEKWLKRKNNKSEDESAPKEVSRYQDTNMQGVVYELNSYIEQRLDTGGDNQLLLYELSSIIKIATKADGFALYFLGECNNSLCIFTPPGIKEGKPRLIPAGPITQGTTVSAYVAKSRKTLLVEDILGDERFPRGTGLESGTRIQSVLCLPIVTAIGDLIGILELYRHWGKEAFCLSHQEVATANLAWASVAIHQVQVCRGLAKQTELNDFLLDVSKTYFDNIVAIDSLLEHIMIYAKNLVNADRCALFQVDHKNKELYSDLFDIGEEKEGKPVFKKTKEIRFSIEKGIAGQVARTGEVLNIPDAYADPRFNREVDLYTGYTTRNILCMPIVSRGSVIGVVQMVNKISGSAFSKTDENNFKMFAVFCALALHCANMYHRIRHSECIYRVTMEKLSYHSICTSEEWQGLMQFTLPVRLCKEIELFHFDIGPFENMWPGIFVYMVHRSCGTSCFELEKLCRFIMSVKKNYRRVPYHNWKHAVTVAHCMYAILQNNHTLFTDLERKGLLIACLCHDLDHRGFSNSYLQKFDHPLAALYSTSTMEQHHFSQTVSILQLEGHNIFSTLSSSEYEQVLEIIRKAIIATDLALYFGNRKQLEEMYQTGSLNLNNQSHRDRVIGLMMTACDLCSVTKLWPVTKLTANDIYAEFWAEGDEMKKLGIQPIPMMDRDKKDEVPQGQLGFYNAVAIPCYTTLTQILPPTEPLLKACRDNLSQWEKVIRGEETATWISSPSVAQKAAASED
Experimental: The dissociation constant KD of [^18F]IV was determined in homologous competitive binding experiments by nonlinear regression analysis. Cell membrane homogenates from PDE10A-transfected SF21 cells (100 µg protein/mL incubation volume) were incubated with solutions of six concentrations of IV (working concentration 10 pM–[…]), each spiked with a fixed concentration of [^18F]IV (working concentration 0.05–0.1 nM).
Crude membrane homogenates isolated from PDE10A-transfected SF21 cells were obtained from Biocrea GmbH, Radebeul, Germany. For competitive radioligand displacement experiments (n = 2), the membrane preparations were diluted with incubation buffer (50 mM Tris-HCl, pH 7.4 at room temperature, 5 mM MgCl2) and re-homogenized by passing through a 27-gauge needle. The protein (100 µg) was incubated with 0.05–0.1 nM of [^18F]IV and different concentrations of IV (10 pM–1 µM), diluted from a 10 mM stock in DMSO, at a final volume of 1 mL. Nonspecific binding was determined in the presence of 10 µM of I, and control incubation was carried out accordingly using crude membrane preparations obtained from non-transfected SF21 cells.
Incubation at room temperature was terminated after 120 min by rapid filtration (Brandel 48-channel harvester; Biomedical Research and Development Lab. Inc., Gaithersburg, MD, USA) on Whatman GF/B glass-fiber filters, pre-soaked for 90 min in 0.3% polyethylenimine (Sigma, Deisenhofen, Germany), followed by washing four times with 4 mL of ice-cold wash buffer (50 mM Tris-HCl, pH 7.4 at 4 °C). Filter-bound radioactivity was quantified using a calibrated γ-counter (Wallac WIZARD, Perkin Elmer, Waltham, MA, USA).
Each experiment was carried out in triplicate. The binding parameter IC50 was estimated using iterative non-linear curve fitting. KD of [^18F]IV was estimated directly from homologous competition curve with KD = IC50-[radioligand] as well as from the respective saturation isotherm by nonlinear regression analysis.

PDE4A = test system: PDE4A; set-up: method as in earlier work; conditions: cited from earlier work
PDE 7B = test system: PDE 7B; set-up: method as in earlier work; conditions: cited from earlier work
[2] = log D7.0 by RP-HPLC retention; assay type: physicochemical; conditions: MeCN/NH4OAc, pH 7.0, read-out: Log D
Source text: To clarify these findings, we determined the ligand distribution coefficients for [^18/19F]IV experimentally, under physiological pH conditions in solid-liquid phase systems via retention on RP-HPLC, and in liquid-liquid phase systems by conventional shake-flask method. […] All in one, an experimental log D7.0–7.4 value of ~2.7 promised a good potential for brain uptake of [^18F]IV in vivo, attended by low unspecific binding.
Referring to an OECD guideline and using a series of reference compounds (nitrobenzene, p-nitrophenol, benzene, toluene, chlorobenzene, benzophenone, naphthalene, 1,4-dibromobenzene, biphenyl, diphenylether, 1,4-diiodobenzene) with known log POW values comprised between 1.89 and 4.64, retention times were determined on two reversed phase columns (Multospher 120 RP-18 AQ, 250 mm × 4.6 mm, 5 μm, CS-Chromatographie Service GmbH, Langerwehe, Germany; SupelcosilTM ABZ + Plus, 250 × 4 mm, 5 μm, Supelco, Bellefonte, PA, USA). […] Dead times t0 were determined by retention of thiourea. Corresponding capacity factors k for all compounds were calculated and plotted as log k versus log P of the standard compounds, affording calibration curves (Microcal^TM Origin 6.0, Microcal Software, Inc., Northhampton, MA, USA). […]

PDE 2A = test system: PDE 2A; set-up: method as in earlier work; conditions: cited from earlier work
PDE3A = test system: PDE3A; set-up: method as in earlier work; conditions: cited from earlier work
PDE 1B = test system: PDE 1B; set-up: method as in earlier work; conditions: cited from earlier work
PDE 5A = test system: PDE 5A; set-up: method as in earlier work; conditions: cited from earlier work
PDE 6 = test system: PDE 6; set-up: method as in earlier work; conditions: cited from earlier work
PDE 11A = test system: PDE 11A; set-up: method as in earlier work; conditions: cited from earlier work
PDE 9A = test system: PDE 9A; set-up: method as in earlier work; conditions: cited from earlier work
PDE10A [3] = target: T1, PDE10A; set-up: method as in earlier work; conditions: cited from earlier work
PDE10A [4] = target: T1, PDE10A; conditions: cited from earlier work

Row | IC50 (PDE10A [1]; mean, n = 2, 0.05–0.1 nM [18F]IV) [nM] | IC50 (PDE10A [1]; single experiments (n = 2)) | chromatographic logD ([2]; Multospher 120 RP-18 AQ column, Multospher) | chromatographic logD ([2]; Supelcosil ABZ+Plus column, Supelcosil) | Compound | IC50 (PDE 8A) [nM] | IC50 (PDE4A) [nM] | IC50 (PDE 7B) [nM] | IC50 (PDE 2A) [nM] | IC50 (PDE3A) [nM] | IC50 (PDE 1B) [nM] | IC50 (PDE 5A) [nM] | IC50 (PDE 6) [nM] | IC50 (PDE 11A) [nM] | IC50 (PDE 9A) [nM] | IC50 (PDE10A [3]; PDE10A) [nM] | Ki (PDE10A [3]; data to be published in detail elsewhere) [nM] | IC50 (PDE10A [4]) [nM] | pIC50,PDE10A (PDE10A [4])
1 | 39.3 | 38.3 nM and 40.4 nM | 2.63 | 2.63 | COc1cc2c(N3CC[C@@H](Oc4cnc5ccccc5n4)C3)ncnc2cc1OCCF [IV, (R)-7-(2-fluoroethoxy)-6-methoxy-4-(3-(quinoxalin-2-yloxy)pyrrolidin-1-yl)quinazoline] | > 1000 | 562 | > 1000 | > 1000 | 88.7 | > 1000 | > 1000 | > 1000 | > 1000 | > 1000 | 105 | 53 |  | 
2 |  |  |  |  | FCCn1cc(-c2ccncc2)c(-c2ccc(OCc3ccc4ccccc4n3)cc2)n1 [JNJ41510417] |  |  |  |  |  |  |  |  |  |  |  |  | 0.5 | 9.3
3 |  |  |  |  | Cc1cnc(COc2ccc(-c3nn(CCF)cc3-c3ccncc3)cc2)c(C)c1 [JNJ42259152] |  |  |  |  |  |  |  |  |  |  |  |  |  | 8.8

Reference: article PMC3763632, “Radiosynthesis and Radiotracer Properties of a 7-(2-[^18F]Fluoroethoxy)-6-methoxypyrrolidinylquinazoline for Imaging of Phosphodiesterase 10A with PET” (Pharmaceuticals, 2012)
